The source of these data is patent US20220240499A1, “COMPOSITION AND METHOD FOR CRYOPRESERVATION OF CELLS” (Regents of the University of Minnesota, priority 2019, published 2022).

The test system of data set [1] is iPS cell aggregates. Nature of the data set: Cell proliferation of post-thaw culture from 24 to 48 h. Format: cell-based, human. To be noted: 1: no net change in total live cell count in culture. As for the experimental part: (§1) Different forms of cellular damage were identified. Low-temperature spectroscopy was conducted as described earlier to characterize the formation of intracellular ice at −50° C. Both pre-freeze and post-thaw, cells were stained for ROS and free radicals using H2DCFDA (ROS Detection Assay Kit, BioVision) at 37° C. for 45 min to characterize oxidative stress by immunofluorescence and microplate assay. Thawed cells were also stained for caspase enzyme activity using FAM-FLICA (from ImmunoChemistry Technologies, LLC in Bloomington, Minn.) to detect apoptosis. Size of cell aggregates post-thaw was observed visually. Post-thaw cell recovery, reattachment and proliferation were measured as described earlier. Cells cryopreserved using 10% DMSO in PBS++ was used as a control. Brightfield and fluorescent images were acquired using a Carl Zeiss Axioskop 50 with a 10× air objective (NA 0.30, Plan-Neofluar, Carl Zeiss) or a 20× air objective (NA 0.50, Plan-Neofluar, Carl Zeiss) and a Spot Insight Firewire 2 Camera. Microplate assay was quantified using a Synergy HT microplate reader (BioTek).
Different types of additives were tested. P188 5% w/v was added to both the basal solution and the 2× cryopreservation solution to stabilize cell membrane. 2× NEAA was added pre-freeze to the 2× cryopreservation solution to conserve cellular energy. The following molecules were used to target general or specific apoptosis pathways and added at the given working concentration either pre-freeze or post-thaw: 10 μM rho kinase inhibitor (or ROCK inhibitor, Y-27632, […] Technologies), 20 μM pan caspase inhibitor (Z-VAD-FMK, from ApexBio Technology LLC in Houston, Tex.), 1 μg/ml Fas ligand inhibitor (Recombinant Human Fas/TNFRSF6-Fc Chimera from BioLegend in San Diego, Calif.), 100 ng/ml each of TNF-related apoptosis-inducing ligand (TRAIL) inhibitors targeting TRAIL receptor 1 (Recombinant Human TNFRSF10A-Fc Chimera, BioLegend), TRAIL receptor 2 (Recombinant Human TNFRSF10B-Fc Chimera, BioLegend), and TRAIL receptor 4 (Recombinant Human TNFRSF10D-Fc Chimera, BioLegend) respectively.

The test system of data set [2] is iPS cell aggregates. Nature of the data set: Post-thaw cell reattachment (calcein AM, 24 h post-thaw) after controlled-rate freezing, development of buffer and additives. Format: cell-based, human. The settings on record: 100%: same as DMSO control; for Post-thaw reattachment rate of cell aggregates buffered in HBSS: HBSS buffer; for Post-thaw reattachment rate of cell aggregates buffered in PBS++: PBS++ buffer. As for the experimental part:
Cells were dissociated using ReLeSR™ and harvested as aggregates without centrifugation in the basal solution at cell concentration of ˜ 3×10^6/ml. Suspension of cell aggregates was loaded into cryovials (Nunc CryoTube, ThermoFisher Scientific) for 0.5 ml/vial. 2× cryopreservation solution was introduced to the cells dropwise for 0.5 ml/vial. Cells were then incubated at room temperature for exactly 30 min before freezing.
Cryovials of cells were frozen using a controlled-rate freezer (Kryo 10 Series III from Planer PLC in Middlesex, UK) following the steps listed below using a cooling rate, B, of 1° C./min and a seeding (or ice nucleation) temperature, TNUC, of −4° C.: • 1. Starting temperature 20° C. • 2. −10° C./min to 0° C. • 3. Hold at 0° C. for 10 min to equilibrate temperature inside and outside cryovials • 4. −1° C./min to −4° C. • 5. Hold at −4° C. for 15 min • 6. Induce ice nucleation when cryovial internal temperature reaches −4° C. towards the end of step 5 • 7. −1° C./min to −60° C. • 8. −10° C./min to −100° C.
Frozen cryovials were thawed in a 37° C. water bath. The cryovial was submerged below the lid and agitated for 2.5 min.
E8 media, either with or without apoptosis inhibitors, was added to the thawed suspension of cell aggregates using a flow rate of ˜ 1 ml/min. Dilution factor of 2 was used, meaning each cryovial of cells was used to produce 1 well of a 6-well plate of post-thaw cell culture. Diluted cells were seeded onto a freshly coated culture vessel and placed in 5% CO2 at 37° C. incubator undisturbed for 24 h.
Ability of cryopreserved cells to re-establish culture after thawing was assessed based on a metric of post-thaw cell reattachment. Thawed cells were plated at a specified split ratio. After 24 h, post-thaw culture was washed and stained for live cells with esterase activity using cell permeant dye calcein AM (ThermoFisher Scientific). Live cells in each sample were quantified using a Synergy HT microplate reader (BioTek) in scan mode based on mean fluorescence intensity. Fluorescence measurement was normalized to controls, which were either fresh cells passaged with the same cell density or cells cryopreserved with the same pre-freeze cell concentration using a DMSO-based control formulation, to determine the value of post-thaw cell reattachment for each sample in arbitrary unit.
Controlled-rate freezing protocol remained constant with a cooling rate of 1° C./min and an ice nucleation temperature of −4° C.
as §1
Different types of additives were tested. P188 5% w/v was added to both the basal solution and the 2× cryopreservation solution to stabilize cell membrane. 2× NEAA was added pre-freeze to the 2× cryopreservation solution to conserve cellular energy. […]

Data set [3] relates to iPS cell aggregates. Nature of the data set: Screening of osmolytes for wash-free cryopreservation (cytotoxicity limits by cell reattachment). The settings on record: 300 mM, 30 min, in HBSS at room temperature; observed 24 hours later. As for the experimental part:
Different types of sugars (disaccharides) and sugar alcohols (all BioUltra or PharmaGrade, Sigma-Aldrich) were individually tested for cytotoxicity limits based on its effect on cell reattachment. In consideration for pre-freeze cell processing, each molecule of a given concentration among 300 mM, 150 mM, and 75 mM was used to incubate cell aggregates suspended in HBSS at room temperature for 30 minutes or 1 hour. Then, in consideration of wash-free thawing at minimum dilution ratio of 2, each sample of cell aggregates were mixed at 1:1 volume ratio with E8 media and plated on vitronectin-coated culture vessel. 24 hours later, cell reattachment was observed qualitatively under a Nikon TMS inverted phase contrast microscope. Disaccharides included sucrose, trehalose, maltose, and lactose.

Where a SMILES comes first, the peptide text is derived from it. The star is where a group is joined. Cbz = O=C(OCc1ccccc1)*; CH2F = FC*

For the molecule `COC(=O)C[C@H](NC(=O)[C@H](C)NC(=O)[C@@H](NC(=O)OCc1ccccc1)C(C)C)C(=O)CF` [Pan caspase, Z-VAD-FMK] (Cbz-Val-Ala-Asp(OMe)-CH2F), the “Cell proliferation of culture cryopreserved in HBSS from 24 to 48 h post-thaw” value (“Cell proliferation” below) in the data set on iPS cell aggregates [1] (inhibitors added post-thaw) was determined as 3.312. Moreover, in the data set with iPS cell aggregates [2] (inhibitor added post-thaw), the “Post-thaw reattachment rate of cell aggregates buffered in HBSS” value (“Post-thaw reattachment rate … in HBSS” below) is recorded as 100% and the “Post-thaw reattachment rate of cell aggregates buffered in PBS++” value (“Post-thaw reattachment rate … in PBS++” for short) is 30%. Further, the “Post-thaw reattachment rate … in PBS++” value in the data set on iPS cell aggregates [2] (inhibitor added pre-freeze) is reported as 15%.

In the case of `C[C@@H](N)[C@H]1CC[C@H](C(=O)Nc2ccncc2)CC1` [Rho kinase, Y-27632], the “Cell proliferation” value with iPS cell aggregates [1] (inhibitors added pre-freeze) turned out to be 0.967. Besides, in the data set on iPS cell aggregates [2] (inhibitor added pre-freeze), the “Post-thaw reattachment rate … in HBSS” value is given as 104% and the “Post-thaw reattachment rate … in PBS++” value is recorded as 109%. Also, the “Post-thaw reattachment rate … in PBS++” value with iPS cell aggregates [2] (inhibitor added post-thaw) is given as 11%.

As for Fas ligand, the “Cell proliferation” value with iPS cell aggregates [1] (inhibitors added post-thaw) came out at 1.749; in the data set with iPS cell aggregates [1] (inhibitors added pre-freeze) it was 1.713. Moreover, the “Post-thaw reattachment rate … in HBSS” value with iPS cell aggregates [2] (inhibitor added post-thaw) is listed as 106%; in the data set on iPS cell aggregates [2] (inhibitor added pre-freeze) it was 76%. For the same molecule, the “Post-thaw reattachment rate … in PBS++” value with iPS cell aggregates [2] (inhibitor added post-thaw) is 62%; in the data set with iPS cell aggregates [2] (inhibitor added pre-freeze), 45%.

Take ethylene glycol: the “Conditions and observation: cell reattachment after incubation” value in the data set with iPS cell aggregates [3] was “many colonies, normal morphology”.
